{"source": "patent US8940800B2", "about": "“Pharmaceutical compositions with enhanced performance” (Bend Research, Inc., priority 2004, dated 2015)", "key": {"[1]": {"test": "In vitro dissolution test, microcentrifuge method, PBS (Example 1)", "format": "physicochemical", "conditions": "PBS pH 6.5, 37° C.; for AUC90: 90 minutes; for C1200: concentration at 1200 minutes; for MDC,90: maximum concentration during first 90 minutes", "description": "Dispersions 2, 3, 4, and 10 were evaluated in in vitro dissolution tests using a microcentrifuge method. In this method, 3.6 mg of the spray-dried dispersions was added to a 2-mL microcentrifuge tube. The tube was placed in a 37° C. sonicating bath, and 1.8 mL of phosphate-buffered saline (PBS) at pH 6.5 and 290 mOsm/kg was added. The samples were quickly mixed using a vortex mixer for about 90 seconds. The theoretical maximum concentration of drug if all the drug dissolved was 1000 μg/mL. The samples were centrifuged at 13,000 G at 37° C. for 1 minute. The resulting supernatant solution was then sampled (100 μL) and diluted with 200 μL methanol and then analyzed by HPLC. The tubes were then mixed on the vortex mixer and allowed to stand undisturbed at 37° C. until the next sample. Samples were collected at 4, 10, 20, 40, 90, and 1200 minutes.\nAs controls, in vitro tests were performed using the procedure described above, except that 0.18 mg of crystalline drug was placed in a microcentrifuge tube and mixed with 1.8 mL of PBS."}, "[2]": {"test": "In vitro membrane permeation test, Drug 1 (Example 6)", "format": "physicochemical", "conditions": "37° C.", "description": "Dispersion 14 was evaluated in vitro using a membrane permeation test as follows. An Accurel® PP 1E microporous polypropylene membrane was obtained from Membrana GmbH (Wuppertal, Germany). The membrane was washed in isopropyl alcohol and rinsed in methanol in a sonicating bath for 1 minute at ambient temperature, and then allowed to air dry at ambient temperature. The feed side of the membrane was then plasma-treated to render it hydrophilic by placing a sample of the membrane in a plasma chamber. The atmosphere of the plasma chamber was saturated with water vapor at a pressure of 550 mtorr. A plasma was then generated using radio frequency (RF) power inductively coupled into the chamber via annular electrodes at a power setting of 50 watts for 45 seconds. The contact angle of a drop of water placed on the surface of the plasma-treated membrane was about 40°. […]\nTo form the feed solution, a 1.2 mg sample of the dispersion was weighed into the feed reservoir. […] Samples were then diluted in 250 μL IPA and analyzed using HPLC. […]\nThe maximum flux of drug across the membrane (in units of μg/cm^2-min) was determined by performing a least-squares fit to the data from 0 to 60 minutes to obtain the slope, multiplying the slope by the permeate volume (5 mL), and dividing by the membrane area (4.9 cm^2). […]"}, "[3]": {"test": "Microcentrifuge dissolution test in MFD solution, crystallization inhibition (Example 5)", "format": "physicochemical", "conditions": "37° C.", "description": "First, Dispersions 12 and 13 were evaluated in an in vitro dissolution test using the microcentrifuge method described in Example 1 except that 2.04 mg of the dispersions were separately added to microcentrifuge tubes in duplicate. A 1.8-mL sample of a model fasted duodenal (MFD) solution was then added to the tube and the samples were quickly mixed using a vortex mixer for about 90 seconds. The theoretical maximum concentration of drug if all the drug dissolved was about 100 μgA/mL, where “μgA” refers to the active micrograms of Drug 5. Samples were collected and analyzed by HPLC using a Kromasil C4 column (250 mm×4.6 mm). The mobile phase consisted of 0.2 vol % H3PO4/acetonitrile in a volume ratio of 45/55. Drug concentration was calculated by comparing UV absorbance at 245 nm to the absorbance of Drug 5 standards.\nAs a control, […] of Drug 5 (in the HCl salt form) was added to a separate microcentrifuge tube so that the concentration of drug if all of the drug had dissolved would have been about 200 μgA/mL. […] The MDC90 values provided by Dispersions 12 and 13 were 3.5-fold and 3.0-fold that of the crystalline Drug 5 control, while the AUC90 values were 2.6-fold and 2.7-fold that of the crystalline control. Furthermore, the concentration of dissolved Drug 5 after 1200 minutes (C1200) was higher for Dispersions 12 and 13 than the crystalline control, with Dispersions 12 and 13 providing C1200 values that were 1.7- and 1.4-fold that of the crystalline control, respectively."}, "[4]": {"test": "Solubility of drug in polymer by double-scan DSC (Example 3)", "format": "physicochemical", "description": "The solubilities of drug in HPMCAS polymers were determined using a double-scan differential scanning calorimetry (DSC) analysis of the dispersions as follows. The DSC analysis was carried out on either a TA Instruments DSC2920 or a Mettler DSC 821, calibrated with indium. DSC samples were prepared by weighing 2-4 mg of the dispersion in an aluminum pan with a pinhole. The sample was heated under nitrogen, at a rate of 5° C. per minute from about −20° C. to about 140° C. […] Heating above the Tg allows the drug to phase separate from the dispersion if the drug solubility in the polymer is lower than the drug loading.\nThe sample was then cooled and the sample was scanned a second time using the procedures outlined above. […] The amount of phase separated amorphous drug was estimated by comparing the magnitude of the heat capacity for the phase separated amorphous drug with the heat capacity for pure amorphous drug controls. […]"}, "[5]": {"test": "Aqueous solubility of the drugs used in the examples", "conditions": "water"}}, "note": "Several values for one entry are separate records, joined by “and”; a condition that tells them apart may be missing. Equal values may be shown once."}
{"molecule": "CCOC(=O)N1c2ccc(C(F)(F)F)cc2[C@@H](N(Cc2cc(C(F)(F)F)cc(C(F)(F)F)c2)C(=O)OC)C[C@H]1CC", "note": "[Crystalline Drug 1, [2R,4S]4-[(3,5-bis-trifluoromethyl-benzyl)-methoxycarbonyl-amino]-2-ethyl-6-trifluoromethyl-3,4-dihydro-2H-quinoline-1-carboxylic acid ethyl ester]", "values": [{"measurement": "AUC90", "setting": "[1]", "value": "<88", "unit": "min-μg/mL"}, {"measurement": "C1200", "setting": "[1]", "value": "<1", "unit": "µg/mL"}, {"measurement": "MDC,90", "setting": "[1]", "value": "<1", "unit": "µg/mL"}, {"measurement": "Maximum Flux of Drug 1", "setting": "[2]; feed solution 0.5% NaTC/POPC (MFD), permeate 20 wt % decanol in decane", "value": 0.076, "unit": "μg/cm^2-min"}, {"measurement": "Maximum Flux of Drug 1", "setting": "[2]; feed solution 2.0 wt % NaTC/POPC (fed state model)", "value": 0.13, "unit": "μg/cm^2-min"}]}
{"molecule": "CC[C@@H]1C[C@H](N(Cc2cc(C(F)(F)F)cc(C(F)(F)F)c2)C(=O)OC)c2cc(C(F)(F)F)ccc2N1C(=O)OC(C)C", "note": "[Crystalline Drug 3, [2R,4S]4-[(3,5-bis-trifluoromethyl-benzyl)-methoxycarbonyl-amino]-2-ethyl-6-trifluoromethyl-3,4-dihydro-2H-quinoline-1-carboxylic acid isopropyl ester]", "values": [{"measurement": "AUC90", "setting": "[1]", "value": "<88", "unit": "min-μg/mL"}, {"measurement": "C1200", "setting": "[1]", "value": "<1", "unit": "µg/mL"}, {"measurement": "MDC,90", "setting": "[1]", "value": "<1", "unit": "µg/mL"}]}
{"molecule": "O=C1Cc2cc(CCN3CCN(c4nsc5ccccc45)CC3)c(Cl)cc2N1", "note": "[Crystalline Drug 5]", "values": [{"measurement": "AUC90", "setting": "[3]", "value": "1,700 min-μg/mL"}, {"measurement": "MDC,90", "setting": "[3]", "value": 22, "unit": "µg/mL"}, {"measurement": "C1200", "setting": "[3]; 1200 minutes", "value": 9, "unit": "µg/mL"}]}
{"molecule": "CCOC(=O)N1c2ccc(C(F)(F)F)cc2[C@@H](N(Cc2cc(C(F)(F)F)cc(C(F)(F)F)c2)C(=O)OC)C[C@H]1CC", "note": "[Drug 1, [2R,4S]4-[(3,5-bis-trifluoromethyl-benzyl)-methoxycarbonyl-amino]-2-ethyl-6-trifluoromethyl-3,4-dihydro-2H-quinoline-1-carboxylic acid ethyl ester]", "values": [{"measurement": "solubility of the drug in the polymer", "setting": "[4]; in the H grade of HPMCAS", "value": "35-40 wt %"}, {"measurement": "solubility of the drug in the polymer", "setting": "[4]; in the M grade of HPMCAS", "value": "25 to 30", "unit": "wt %"}, {"measurement": "solubility", "setting": "[5]", "value": "< 0.04", "unit": "µg/mL"}]}
{"molecule": "CC[C@@H]1C[C@H](N(Cc2cc(C(F)(F)F)cc(C(F)(F)F)c2)C(C)=O)c2cc(C(F)(F)F)ccc2N1C(=O)OC(C)C", "note": "[Drug 2, [2R,4S]4-[acetyl-(3,5-bis-trifluoromethyl-benzyl)-amino]-2-ethyl-6-trifluoromethyl-3,4-dihydro-2H-quinoline-1-carboxylic acid isopropyl ester]", "values": [{"measurement": "solubility", "setting": "[5]", "value": "< 1", "unit": "µg/mL"}]}
{"molecule": "CC[C@@H]1C[C@H](N(Cc2cc(C(F)(F)F)cc(C(F)(F)F)c2)C(=O)OC)c2cc(C(F)(F)F)ccc2N1C(=O)OC(C)C", "note": "[Drug 3, [2R,4S]4-[(3,5-bis-trifluoromethyl-benzyl)-methoxycarbonyl-amino]-2-ethyl-6-trifluoromethyl-3,4-dihydro-2H-quinoline-1-carboxylic acid isopropyl ester]", "values": [{"measurement": "solubility", "setting": "[5]", "value": "< 1", "unit": "µg/mL"}]}
{"molecule": "CCc1cc(Oc2cccc(N(Cc3cccc(OC(F)(F)C(F)F)c3)C[C@@H](O)C(F)(F)F)c2)ccc1Cl", "note": "[Drug 4, (2R)-3-[[3-(4-chloro-3-ethylphenoxy)phenyl][[3-(1,1,2,2-tetrafluoroethoxy)phenyl]methyl]amino]-1,1,1-trifluoro-2-propanol]", "values": [{"measurement": "solubility", "setting": "[5]", "value": "< 1", "unit": "µg/mL"}]}
{"molecule": "O=C1Cc2cc(CCN3CCN(c4nsc5ccccc45)CC3)c(Cl)cc2N1", "note": "[Drug 5]", "values": [{"measurement": "solubility", "setting": "[5]", "value": "< 0.1 µg/mL and ~10 µg/mL"}]}
